The target in one assay is CYP3A4(BFC) (Homo sapiens, UniProt P08684). In words: CYP3A4(BFC) inhibition. In kind it is in vitro ADME. The note with it: CYP3A4, substrate BFC; read-out: Cyp IC50 3A4(BFC). The method, then: (§1) CYP (Cytochrome P450) enzymes are the major drug metabolizing enzymes present in the liver. The inhibition of CYP enzyme activity (IC50) for each of CYP1A2, CYP2C19, CYP2C9, CYP2D6, CYP3A4(BFC) and CYP3A4(BQ) is determined for compounds, where inhibition of metabolism of a known substrate leads to a decrease in the fluorescence of the metabolized product. The fluorescence of the product is monitored as a function of compound concentration. Compounds are dissolved in DMSO to a concentration of 100 mM. These are diluted 1 μL into 82 μL of acetonitrile. An 11 μL aliquot of this solution is then added to 204 μL of cofactor mix (1.3% NADPH Regeneration system Solution A, 1.04% NADPH Regeneration system Solution B from BD Biosciences, 5% acetonitrile and 0.05% DMSO). These are then serially diluted 1:1 (160 μL to 160 μL co-factor mix) for a total of 10 points. A 10 μL aliquot of this final mixture is dispensed into 384 well assay plates and incubated for 10 minutes at 37° C. […] Assay plates are incubated at 37° C. (CYP1A2-15 min; CYP2C9-45 min; CYP2C19, 2D6 and 3A4-30 min) and read in a Tecan Safire 2 plate reader (CYP1A2, 2C19 and 3A4 409 ex/460 em; CYP2C9 and 2D6 409 ex/530 em). The signal versus compound concentration is used to determine the IC50. The enzymes and substrates for this assay are obtained from BD Biosciences.

In the next assay the target is CYP2C9 (Homo sapiens, UniProt P11712). In words: CYP2C9 inhibition (fluorescent substrate MFC). In kind it is in vitro ADME. The settings on record: read-out: Cyp IC50 2C9. On the procedure:
as §1

In a further assay the target is CYP2D6 (Homo sapiens, UniProt P10635). In words: CYP2D6 inhibition (fluorescent substrate AMMC). Format: in vitro ADME. The note with it: read-out: Cyp IC50 2D6. On the procedure:
as §1

The next assay deals with CYP2C19 (Homo sapiens, UniProt P33261). Kind of assay: CYP2C19 inhibition (fluorescent substrate CEC). In kind it is in vitro ADME. The settings on record: read-out: Cyp IC50 2C19. The method, then:
as §1

Another assay has as its target TrkA kinase (Homo sapiens, UniProt P04629). Kind of assay: TrkA kinase biochemical activity assay (AlphaScreen). The note with it: 100 μM ATP; read-out: Biochemical Inhibition IC50 TrkA. On the procedure:
In one assay the biochemical activity IC50 values are determined with respect to inhibition of TrkA kinase activity, where inhibition of phosphorylation of a peptide substrate is measured as a function of compound concentration. Compounds to be tested, dissolved in DMSO (1 μL), are added to a white 384-well plate (Costar #3705). Working stocks of TrkA kinase (UBI), biotin-(E4Y)10 substrate (Upstate Biotech, Cat#12-440), and ATP (Sigma, Cat#A-3377) are prepared in 25 mM Hepes pH 7.5, 10 mM MnCl2, 1 mM DTT, 0.01% BSA, and 0.01% Tween-20. All components are added to the 384-well plate for a final concentration of 1 ng/well TrkA, 30 nM biotin-(E4Y)10 and 100 μM ATP in a volume of 20 μL. Each sample is at 5% DMSO. The plate is shaken for 1 minute at 1200 rpm, spun for 1 minute at 1000 rpm, then incubated for 40 minutes at room temperature. Just before use, working stocks of donor and acceptor beads from the AlphaScreen PY20 Detection Kit (PerkinElmer, Cat#676601M) are prepared in 25 mM Hepes pH 7.5, 100 mM EDTA. 0.01% BSA. Donor Beads solution (Streptavidin beads) is added (5 μL) to each well to final bead concentration of 10 μg/mL. The plate is incubated at room temperature for 20 minutes. Acceptor Beads solution (PY20 coated beads) are then added to each well (5 μL) to a final concentration of bead at 10 μg/mL. The plates are incubated at room temperature for 60 minutes. Fluorescence signal is recorded on the Envision reader. Phosphorylated substrate results in binding of the PY20 antibody and association of the donor and acceptor beads such that signal correlates with kinase activity. The signal vs. compound concentration is used to determine the IC50. Similar assays are used for TrkB and Trk C kinase.
(Bead proximity is the source of the signal in Alpha formats.)

A value given as a limit tells only on which side of the number the result lay.

From US8901118B2, “Compounds and methods for kinase modulation, and indications therefor” (Plexxikon Inc., priority 2010, dated 2014) come the findings set out here.

CYP2C9, sequence (P11712 whole entry): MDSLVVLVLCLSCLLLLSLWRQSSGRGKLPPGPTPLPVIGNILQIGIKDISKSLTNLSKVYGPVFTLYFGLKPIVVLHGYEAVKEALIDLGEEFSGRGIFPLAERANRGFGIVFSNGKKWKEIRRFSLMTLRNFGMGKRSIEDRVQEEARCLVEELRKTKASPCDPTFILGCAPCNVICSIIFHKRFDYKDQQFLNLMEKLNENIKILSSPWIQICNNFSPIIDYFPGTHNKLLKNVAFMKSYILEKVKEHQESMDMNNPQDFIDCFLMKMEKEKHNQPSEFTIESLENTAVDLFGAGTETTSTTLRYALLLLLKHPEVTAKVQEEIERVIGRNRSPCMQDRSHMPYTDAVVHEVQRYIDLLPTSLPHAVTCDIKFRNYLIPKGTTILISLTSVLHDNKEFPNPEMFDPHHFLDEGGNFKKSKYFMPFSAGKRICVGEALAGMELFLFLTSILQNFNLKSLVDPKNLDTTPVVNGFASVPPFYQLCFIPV
CYP2C19, sequence (P33261 whole entry): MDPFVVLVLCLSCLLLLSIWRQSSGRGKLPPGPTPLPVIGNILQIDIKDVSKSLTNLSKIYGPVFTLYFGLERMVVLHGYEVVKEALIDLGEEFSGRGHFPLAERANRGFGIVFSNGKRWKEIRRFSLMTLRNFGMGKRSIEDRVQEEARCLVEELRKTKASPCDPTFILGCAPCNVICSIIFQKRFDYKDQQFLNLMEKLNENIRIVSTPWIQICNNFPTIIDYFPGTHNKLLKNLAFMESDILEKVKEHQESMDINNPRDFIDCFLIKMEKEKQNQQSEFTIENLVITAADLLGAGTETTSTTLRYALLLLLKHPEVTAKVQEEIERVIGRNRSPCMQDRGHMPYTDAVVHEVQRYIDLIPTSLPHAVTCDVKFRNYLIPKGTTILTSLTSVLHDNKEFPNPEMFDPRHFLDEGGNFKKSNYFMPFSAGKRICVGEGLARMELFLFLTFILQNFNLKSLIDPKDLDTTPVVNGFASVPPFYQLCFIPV
CYP3A4(BFC), sequence (P08684 whole entry): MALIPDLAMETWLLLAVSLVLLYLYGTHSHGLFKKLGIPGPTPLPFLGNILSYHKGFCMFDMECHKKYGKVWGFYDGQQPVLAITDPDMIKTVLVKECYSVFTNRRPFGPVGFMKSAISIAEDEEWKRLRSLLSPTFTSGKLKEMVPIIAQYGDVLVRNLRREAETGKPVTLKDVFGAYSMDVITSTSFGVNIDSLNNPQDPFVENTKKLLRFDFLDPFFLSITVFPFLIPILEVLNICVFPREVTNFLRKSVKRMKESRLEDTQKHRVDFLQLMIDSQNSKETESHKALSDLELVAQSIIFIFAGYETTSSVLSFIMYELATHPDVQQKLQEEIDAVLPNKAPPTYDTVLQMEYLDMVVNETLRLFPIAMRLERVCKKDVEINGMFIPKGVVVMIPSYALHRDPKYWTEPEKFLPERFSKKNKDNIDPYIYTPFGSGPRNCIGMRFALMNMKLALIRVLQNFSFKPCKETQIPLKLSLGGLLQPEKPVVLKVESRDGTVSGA
CYP2D6, sequence (P10635 whole entry): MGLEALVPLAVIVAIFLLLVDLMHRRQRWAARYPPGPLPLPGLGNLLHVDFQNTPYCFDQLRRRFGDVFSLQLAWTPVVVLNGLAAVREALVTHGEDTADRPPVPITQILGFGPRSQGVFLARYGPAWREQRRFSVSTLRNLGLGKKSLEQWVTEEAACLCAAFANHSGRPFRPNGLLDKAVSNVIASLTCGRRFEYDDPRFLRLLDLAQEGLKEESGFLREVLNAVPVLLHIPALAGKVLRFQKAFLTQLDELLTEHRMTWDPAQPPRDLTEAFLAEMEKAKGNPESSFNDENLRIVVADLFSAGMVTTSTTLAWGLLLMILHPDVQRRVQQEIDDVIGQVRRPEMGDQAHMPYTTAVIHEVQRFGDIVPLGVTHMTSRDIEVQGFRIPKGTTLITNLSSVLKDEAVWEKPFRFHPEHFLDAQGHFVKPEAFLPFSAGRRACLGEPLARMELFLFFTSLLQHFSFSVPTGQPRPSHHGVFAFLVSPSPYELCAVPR
TrkA kinase, sequence (P04629 33-796): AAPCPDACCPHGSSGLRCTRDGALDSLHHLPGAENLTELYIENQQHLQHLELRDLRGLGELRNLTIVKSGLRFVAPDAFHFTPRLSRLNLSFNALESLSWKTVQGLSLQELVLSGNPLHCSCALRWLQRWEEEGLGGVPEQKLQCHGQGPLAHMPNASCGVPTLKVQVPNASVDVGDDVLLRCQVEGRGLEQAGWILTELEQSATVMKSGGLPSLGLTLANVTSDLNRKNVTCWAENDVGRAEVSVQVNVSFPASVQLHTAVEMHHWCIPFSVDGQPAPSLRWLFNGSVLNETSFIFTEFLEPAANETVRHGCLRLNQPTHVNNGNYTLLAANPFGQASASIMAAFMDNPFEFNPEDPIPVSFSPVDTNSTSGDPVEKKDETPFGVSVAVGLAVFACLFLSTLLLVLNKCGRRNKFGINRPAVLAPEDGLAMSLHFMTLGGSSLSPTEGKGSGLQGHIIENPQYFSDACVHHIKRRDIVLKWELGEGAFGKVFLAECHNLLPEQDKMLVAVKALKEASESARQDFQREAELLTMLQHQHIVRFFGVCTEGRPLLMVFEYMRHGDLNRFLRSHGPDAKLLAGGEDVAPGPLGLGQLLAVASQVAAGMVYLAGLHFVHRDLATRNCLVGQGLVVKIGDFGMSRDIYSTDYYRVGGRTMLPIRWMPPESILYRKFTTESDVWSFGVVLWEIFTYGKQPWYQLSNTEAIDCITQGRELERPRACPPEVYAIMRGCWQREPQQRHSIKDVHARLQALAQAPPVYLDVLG

One may read the IC50 as the midpoint of a concentration-inhibition curve. Consider `CC1CCC(Nc2ncc(Cc3c[nH]c4ncc(Cl)cc34)cn2)CC1` (centres unmarked) [Compound P-3009, [5-(5-Chloro-1H-pyrrolo[2,3-b]pyridin-3-ylmethyl)-pyrimidin-2-yl]-(4-methyl-cyclohexyl)-amine], for which the IC50 on CYP3A4(BFC) is 5 to 10 µM; on CYP2C9, greater than 10 µM; on CYP2D6 it was greater than 10 µM; at CYP2C19, less than 5 µM.

Take `Cc1cnc2[nH]cc(Cc3cnc(Nc4ccc(F)cc4)nc3)c2c1` [Compound P-3010, (4-Fluoro-phenyl)-[5-(5-methyl-1H-pyrrolo[2,3-b]pyridin-3-ylmethyl)-pyrimidin-2-yl]-amine]: the IC50 at CYP3A4(BFC) is greater than 10 µM; on CYP2C9, greater than 10 µM; on CYP2D6, greater than 10 µM; at CYP2C19, greater than 10 µM; on TrkA kinase it was less than 1 µM.

For the compound `Clc1ccc(Nc2ncc(Cc3c[nH]c4ncc(Cl)cc34)cn2)cc1` [Compound P-3011, (4-Chloro-phenyl)-[5-(5-chloro-1H-pyrrolo[2,3-b]pyridin-3-ylmethyl)-pyrimidin-2-yl]-amine], the IC50 on CYP3A4(BFC) is greater than 10 µM; on CYP2C9, greater than 10 µM; at CYP2D6, greater than 10 µM; on CYP2C19, greater than 10 µM; at TrkA kinase, greater than 1 µM.

Consider `Fc1ccc(Nc2ncc(Cc3c[nH]c4ncc(Cl)cc34)cn2)cc1` [Compound P-3012, [5-(5-Chloro-1H-pyrrolo[2,3-b]pyridin-3-ylmethyl)-pyrimidin-2-yl]-(4-fluoro-phenyl)-amine], for which the IC50 at CYP3A4(BFC) was greater than 10 µM; at CYP2C9, greater than 10 µM; on CYP2D6, greater than 10 µM; at CYP2C19, greater than 10 µM; at TrkA kinase it was greater than 1 µM.

`Fc1nc(NC2CCC(F)(F)CC2)ccc1Cc1c[nH]c2ncc(Cl)cc12` [Compound P-3013, [5-(5-Chloro-1H-pyrrolo[2,3-b]pyridin-3-ylmethyl)-6-fluoro-pyridin-2-yl]-(4,4-difluoro-cyclohexyl)-amine]: the IC50 at CYP3A4(BFC) was greater than 10 µM; on CYP2C9, greater than 10 µM; at CYP2D6 it was greater than 10 µM; on CYP2C19 it was less than 5 µM.

For the compound `Fc1ccccc1Nc1ncc(Cc2c[nH]c3ncc(Cl)cc23)cn1` [Compound P-3014, [5-(5-Chloro-1H-pyrrolo[2,3-b]pyridin-3-ylmethyl)-pyrimidin-2-yl]-(2-fluoro-phenyl)-amine], the IC50 at TrkA kinase was greater than 1 µM.

In the case of `Clc1cnc2[nH]cc(Cc3cnc(Nc4ccccc4Cl)nc3)c2c1` [Compound P-3015, (2-Chloro-phenyl)-[5-(5-chloro-1H-pyrrolo[2,3-b]pyridin-3-ylmethyl)-pyrimidin-2-yl]-amine], at TrkA kinase, the IC50 is greater than 1 µM.

Consider `COc1ccc(Nc2ccc(C(=O)c3c[nH]c4ncnc(NC(C)(C)C)c34)c(F)n2)cn1` [Compound P-4055, [4-(tert-butylamino)-7H-pyrrolo[2,3-d]pyrimidin-5-yl]-[2-fluoro-6-[(6-methoxy-3-pyridyl)amino]-3-pyridyl]methanone], for which the IC50 on CYP3A4(BFC) was greater than 10 µM; on CYP2C9, greater than 10 µM; at CYP2D6, greater than 10 µM; at CYP2C19, less than 10 µM.

On to `COc1ccc(Nc2ccc(C(=O)c3c[nH]c4ncnc(NC5CCC(F)(F)CC5)c34)c(F)n2)cn1` [Compound P-4056, [4-[(4,4-difluorocyclohexyl)amino]-7H-pyrrolo[2,3-d]pyrimidin-5-yl]-[2-fluoro-6-[(6-methoxy-3-pyridyl)amino]-3-pyridyl]methanone], for which the IC50 was greater than 10 µM on CYP3A4(BFC), greater than 10 µM at CYP2C9, greater than 10 µM at CYP2D6 and 5 to 20 µM at CYP2C19.

For `O=C(c1ccc(NC2CCC(F)(F)CC2)nc1Cl)c1c[nH]c2ncnc(NCC(F)(F)F)c12` [Compound P-4057, [2-chloro-6-[(4,4-difluorocyclohexyl)amino]-3-pyridyl]-[4-(2,2,2-trifluoroethylamino)-7H-pyrrolo[2,3-d]pyrimidin-5-yl]methanone], the IC50 at CYP3A4(BFC) is greater than 10 µM; on CYP2C9, greater than 10 µM; on CYP2D6, greater than 10 µM; at CYP2C19, greater than 10 µM; at TrkA kinase, less than 1 µM.

For `CNc1ncnc2[nH]cc(C(=O)c3ccc(NC4CCC(F)(F)CC4)nc3Cl)c12` [Compound P-4058, [2-chloro-6-[(4,4-difluorocyclohexyl)amino]-3-pyridyl]-[4-(methylamino)-7H-pyrrolo[2,3-d]pyrimidin-5-yl]methanone], the IC50 is greater than 10 µM on CYP3A4(BFC); greater than 10 µM at CYP2C9; greater than 10 µM at CYP2D6; greater than 10 µM at CYP2C19; less than 1 µM on TrkA kinase.

As to `O=C(c1ccc(NC2CCC(F)(F)CC2)nc1Cl)c1c[nH]c2ncnc(NC3CC3)c12` [Compound P-4059, [2-chloro-6-[(4,4-difluorocyclohexyl)amino]-3-pyridyl]-[4-(cyclopropylamino)-7H-pyrrolo[2,3-d]pyrimidin-5-yl]methanone], the IC50 at CYP3A4(BFC) is greater than 10 µM; at CYP2C9, 5 to 10 µM; at CYP2D6 it was greater than 10 µM; at CYP2C19 it was greater than 10 µM; on TrkA kinase, less than 0.1 µM.

On to `CCNc1ncnc2[nH]cc(C(=O)c3ccc(Nc4ccc(C5CC5)nc4)nc3F)c12` [Compound P-4060, [6-[(6-cyclopropyl-3-pyridyl)amino]-2-fluoro-3-pyridyl]-[4-(ethylamino)-7H-pyrrolo[2,3-d]pyrimidin-5-yl]methanone], for which the IC50 at CYP3A4(BFC) is greater than 10 µM; on CYP2C9, greater than 10 µM; at CYP2D6, greater than 10 µM; at CYP2C19, greater than 10 µM; at TrkA kinase it was less than 0.01 µM.

In the case of `O=C(c1ccc(NC2CCC(F)(F)CC2)nc1F)c1c[nH]c2ncnc(NCC(F)(F)F)c12` [Compound P-4061, [6-[(4,4-difluorocyclohexyl)amino]-2-fluoro-3-pyridyl]-[4-(2,2,2-trifluoroethylamino)-7H-pyrrolo[2,3-d]pyrimidin-5-yl]methanone], the IC50 is greater than 10 µM on CYP3A4(BFC); greater than 10 µM at CYP2C9; greater than 10 µM at CYP2D6; greater than 10 µM at CYP2C19; less than 0.1 µM at TrkA kinase.

Consider `O=C(c1ccc(NC2CCC(F)(F)CC2)nc1F)c1c[nH]c2ncnc(NC3CC3)c12` [Compound P-4062, [4-(cyclopropylamino)-7H-pyrrolo[2,3-d]pyrimidin-5-yl]-[6-[(4,4-difluorocyclohexyl)amino]-2-fluoro-3-pyridyl]methanone], for which the IC50 at CYP3A4(BFC) is greater than 10 µM; at CYP2C9, greater than 10 µM; on CYP2D6, greater than 10 µM; at CYP2C19 it was greater than 10 µM; at TrkA kinase, less than 0.01 µM.

Regarding `CNc1ncnc2[nH]cc(C(=O)c3ccc(Nc4ccc(OC)nc4)nc3OC)c12` [Compound P-4085, [2-methoxy-6-[(6-methoxy-3-pyridyl)amino]-3-pyridyl]-[4-(methylamino)-7H-pyrrolo[2,3-d]pyrimidin-5-yl]methanone], the IC50 on TrkA kinase was less than 0.01 µM.

In the case of `CCc1ccc(Nc2ccc(C(=O)c3c[nH]c4ncnc(Nc5ccc(C)nc5)c34)c(F)n2)cn1` [Compound P-4086, [6-[(6-ethyl-3-pyridyl)amino]-2-fluoro-3-pyridyl]-[4-[(6-methyl-3-pyridyl)amino]-7H-pyrrolo[2,3-d]pyrimidin-5-yl]methanone], the IC50 at TrkA kinase was less than 0.1 µM.
